Experiment: Chemical stability of composite particles in lactose carrier blend stored at 60° C. and 75% relative humidity for seven days
Format: physicochemical
Description: A 20 gram blend of 5% cholesterol coated salmeterol particles was prepared with a concetration of 0.8% w/w salmeterol base in alpha lactose monohydrate. Approximately 10 grams of alpha lactose monohydrate with target particle size of 65-85μm (Borcula, The Netherlands) was weighed into the bottom of a 120 mL amber glass jar. 0.247g of 5% cholesterol coated salmeterol HNA was added on top of the lactose and 9.77 g of lactose was added on top of the mixture. The mixture was blended using a Turbula T2F blender at 96 RPM for 5 minutes. The jar was removed from the blender and excess blend was tapped from the top of the jar. One additional blending cycle was performed for 5 minutes at 96 RPM to complete the process.
Samples of particles prepared in accordance with Example 2 above were stored in controlled atmospheric conditions of 60° C. and 75% relative humidity for seven days. The percentage of active ingredient was taken at day 0 and day 7. […] When cholesterol was included, the degradation was reduced to less than 2%.
It has been observed that micronized SX degrades at 60 ° C. and 75% relative humidity (RH) conditions when in a neat blend with lactose.

SMILES	% Impurities of Composite Particles in 0.4% GW597901M Base/Lactose Blend, 7 Days at 60° C. and 75% RH (0.4% GW597901M base/lactose blend, 7 days at 60° C. and 75% RH)	% Impurities of Composite Particles in 0.4% GW597901M Base/Lactose Blend, Initial (0.4% GW597901M base/lactose blend, initial)	% Impurities of Composite Particles in 0.8% Salmeterol Base/Lactose Blend, 7 Days at 60° C. and 75% RH (0.8% salmeterol base/lactose blend, 7 days at 60° C. and 75% RH)	% Impurities of Composite Particles in 0.8% Salmeterol Base/Lactose Blend, 7 Days at 60° C. and 75% RH (0.8% salmeterol base/lactose blend, 7 days at 60° C. and 75% RH, listed as MIC SX from alternate study)	% Impurities of Composite Particles in 0.8% Salmeterol Base/Lactose Blend, Initial (0.8% salmeterol base/lactose blend, initial (day 0))	drop in the amount of SX present in the formulation (degradation) at day 7 (formulation with carrier, 60° C. and 75% relative humidity, day 7 vs day 0)
NS(=O)(=O)c1cccc(CCCCOCCCCCCNC[C@H](O)c2ccc(O)c(CO)c2)c1 [Micronized GW597901M, 3-(4-{[6-({(2R)-2-hydroxy-2-[4-hydroxy-3-(hydroxymethyl)phenyl]ethyl}amino)hexyl]oxy}-butyl)benzene-sulfonamide]	10.0%	3.9%				
OCc1cc(C(O)CNCCCCCCOCCCCc2ccccc2)ccc1O (stereo not drawn) [Micronized SX, salmeterol xinafoate]			7.4%	8.0%	0.5%	7%

Source: patent US20060165785A1, “Method of chemically stabilizing pharmaceutical formulations with cholesterol” (priority 2005, published 2006)
